Reference: patent US20220031738A1, “IRON FORMULATIONS FOR TOPICAL ADMINISTRATION AND METHODS OF TREATMENT OF IRON DEFICIENCY” (DYVE BIOSCIENCES, INC., priority 2018, published 2022)

Key:
Format in all cases: in vivo
[1] = tested on: Anemic human patients with progressive renal insufficiency; test: Topical vs oral vs intravenous iron supplementation in anemic patients with progressive renal insufficiency treated with erythropoietin
Protocol: In this experiment, iron (in the form of ferrous sulfate) in formulations of the invention was tested for its ability to treat anemia in patients with progressive renal insufficiency, and compared to orally or intravenously delivered iron supplementation.
In vivo tests were performed as follows: Anemic human patients with progressive renal insufficiency were treated with either topical, oral or intravenous iron supplementation and evaluated at baseline, 3 months and 6 months. Trial design was built to assess these primary outcomes: hemoglobin response, serum ferritin levels, changes in red cell hypochromasia, and incidence of adverse events. Treatment groups randomized as follows: • Oral iron supplement group (ferrous sulphate 200 mg tds) • Intravenous iron supplement group (300 mg iron sucrose monthly) • Topical iron supplement group (3.34 g of topical formulation applied tds) Formulations detailed below in Table 1 • In all groups Erythropoietin (rHuEpo) treatment was simultaneously commenced.

[2] = tested on: human iron-depleted, nonanemic women; test: Topical vs oral iron to improve endurance after training in iron-depleted, nonanemic women; conditions: oral = ferrous sulfate 100 mg per day
Protocol: In this experiment, iron (in the form of ferrous sulfate) in formulations of the invention was tested for its ability to help improve endurance after training in iron-depleted, nonanemic women and compared to orally delivered iron supplementation.
In vivo tests were performed as follows: human iron-depleted (serum ferritin <16 μg/l), nonanemic (Hb >12 g/dl) women (18-33 yr old) were treated with either topical or oral iron supplementation for 6 weeks. Subjects trained for 30 min/day, 5 days/wk at 75-85% of maximum heart rate for the final 4 wk of the study. Trial design was built to assess this primary outcome: change in 15 km time from baseline to […]. Treatment groups randomized as follows: • a. Control group: oral placebo • b. Oral iron supplement group (100 mg of ferrous sulfate per day) • c. Topical iron supplement group (1.67 g of topical formulation applied daily) Formulations detailed in Table 6 below

[3] = tested on: human patients with chemotherapy-related anemia; test: Topical vs oral vs intravenous iron in anemic cancer patients receiving darbepoetin alfa; conditions: 8 weeks, with darbepoetin alfa 500 mcg every 3 weeks; oral = sucrosomial iron 30 mg daily; IV = ferric gluconate 125 mg weekly; topical = 0.50 g Table 4 formulation daily
Protocol: In this experiment, iron (in the form of ferrous sulfate) in formulations of the invention was tested for its ability to help treat chemotherapy-induced anemia in cancer patients when combined with erythropoiesis-stimulating agents (ESAs), and compared to orally or intravenously delivered iron supplementation. […] Trial design was built to assess this primary outcome: Hb response as defined as the Hb increase ≥2 g/dL from baseline or the attainment Hb ≥12 g/dL. Treatment groups randomized as follows: • a. Oral iron supplement group (sucrosomial iron 30 mg daily) • b. […] Topical iron supplement group (0.50 g of topical formulation applied daily) Formulations detailed in Table 4 below

[4] = tested on: Anemic human patients with progressive renal insufficiency; test: Topical vs oral vs intravenous iron for iron deficiency in non-hemodialysis-dependent patients with chronic kidney disease; conditions: oral = ferrous sulphate 325 mg thrice daily; intravenous ferric carboxymaltose; topical = 5.42 g Table 2 formulation tds
Protocol: In this experiment, iron (in the form of ferrous sulfate) in formulations of the invention was tested for its ability to treat iron deficiency in non-hemodialysis dependent patients with chronic kidney disease, and compared to orally or intravenously delivered iron supplementation.
In vivo tests were performed as follows: Anemic human patients with progressive renal insufficiency were treated with either topical, oral or intravenous iron supplementation. Trial design was built to assess these primary outcomes: hemoglobin response, and incidence of adverse events. Treatment groups randomized as follows: • a. Oral iron supplement group (ferrous sulphate 325 mg thrice daily for a total of 195 mg elemental iron daily) • b. Intravenous iron supplement group (intravenous ferric carboxymaltose 1000 mg over 15 min (with up to two additional doses of 500 mg at 2-week intervals)) • c. Topical iron supplement group (5.42 g of topical formulation applied tds) Formulations detailed in Table 2 below.

[5] = tested on: human IBD patients with anemia; test: Topical vs oral vs intravenous iron for anemia in inflammatory bowel disease
Protocol: In this experiment, iron (in the form of ferrous sulfate) in formulations of the invention was tested for its ability to help treat anemia in inflammatory bowel disease (IBD) patients and compared to orally or intravenously delivered iron supplementation.
In vivo tests were performed as follows: human IBD patients with anemia were treated with either topical, oral or intravenous iron supplementation for 12 weeks. Trial design was built to assess this primary outcome: change in hemoglobin (Hb) from baseline to week 12. Treatment groups randomized as follows: • a. Oral iron supplement group (FeSulf containing 100 mg ferrous iron (II). Patients received one capsule b.i.d. for 12 wk) • b. Intravenous iron supplement group (ferric carboxymaltose (FeCarb) 50 mg ferric iron (III) per milliliter in water with individual patient dosage calculated according to the formula of Ganzoni) • c. Topical iron supplement group (1.67 g of topical formulation applied b.i.d.) Formulations detailed in Table 5 below

[6] = tested on: Anemic pregnant human patients; test: Topical vs oral vs intravenous iron for anemia in pregnancy
Protocol: In this experiment, iron (in the form of ferrous sulfate) in formulations of the invention was tested for its ability to treat anemia in pregnant patients, and compared to orally or intravenously delivered iron supplementation.
In vivo tests were performed as follows: Anemic pregnant human patients were treated with either topical, oral or intravenous iron supplementation during 14 to 34 weeks of pregnancy. Trial design was built to assess these primary outcomes: haemoglobin and serum ferritin levels. Treatment groups randomized as follows: • a. Oral iron supplement group (200 mg of ferrous fumarate per day) • b. Intravenous iron supplement group (200 mg of iron sucrose was administered in 100 ml 0.9% sodium chloride per day) • c. Topical iron supplement group (3.34 g of topical formulation applied per day) Formulations detailed in Table 3 below

O=S(=O)([O-])[O-].[Fe+2] [ferrous sulphate]
allergic reactions reported, share of patients ([1]; oral = ferrous sulphate, intravenous = iron sucrose, transdermal = Table 1 formulation): none
decrease in 15-km time vs the placebo control group ([2]; topical = 1.67 g Table 6 formulation daily): statistically significantly greater
decrease in 15-km time, oral versus transdermal ([2]; transdermal = 1.67 g Table 6 formulation daily): no statistical difference

ferric gluconate
patients achieving an erythropoietic (Hb) response: Hb increase ≥2 g/dL from baseline or Hb ≥12 g/dL [3]: Seventy one

ferric carboxymaltose
treatment-related adverse events [4]: 2.7%
median Hb after treatment (week 12) ([5]; 12 weeks, same arms as E16): 12.3 g/dL
median Hb at baseline ([5]; before treatment, oral = FeSulf 100 mg ferrous iron b.i.d., IV = ferric carboxymaltose (Ganzoni dose), topical = 1.67 g Table 5 formulation b.i.d.): 8.7 g/dL

O=C([O-])/C=C/C(=O)[O-].[Fe+2] [ferrous fumarate]
participants with an improvement in hemoglobin more than 20 g/L ([6]; same arms as E9): 11%

iron sucrose
serum ferritin levels versus oral ([1]; comparator oral ferrous sulphate 200 mg tds, intravenous = iron sucrose 300 mg monthly, topical = 3.34 g Table 1 formulation tds): statistical significantly higher
allergic reactions reported, share of patients ([1]; human, in vivo): 10%
serum ferritin levels, topical versus intravenous ([1]; intravenous = iron sucrose 300 mg monthly, topical = 3.34 g Table 1 formulation tds): not statistically different
change in hemoglobin ([6]; pregnant women, 14 to 34 weeks of pregnancy, oral = ferrous fumarate 200 mg per day, intravenous = iron sucrose 200 mg per day, topical = 3.34 g Table 3 formulation per day): 22 ± 11.5 g/L
patients with increase in ferritin level between 51 to 100 ng/ml ([6]; same arms as E9): 48%
